From ChEMBL document CHEMBL3507680, “University of Dundee, Gates Library screen for HepG2 cell viability”

Test: Human HepG2 cell viability assay in 384 well format
Assay type: toxicity, cell-based
Design: dose 125 nL, time 70.5 hour; concentration not given beside the values
Conditions: HepG2 cells, read-out: Inhibition

Row | Structure (SMILES) | cytotoxicity at 70.5 h [%]
1 | c1ccc(-n2ccc(CN3CCOC(Cn4cncn4)C3)n2)cc1 (stereo not drawn) | -8.56
2 | c1ccc(-c2ccc(CN3CCOC(Cn4cncn4)C3)cc2)cc1 (stereo not drawn) | 22
3 | Cn1cc(C2CCCN2Cc2csc(C3CCCC3)n2)cn1 (stereo not drawn) | 0.499
4 | Cc1cnn(CC2CN(Cc3ccc(-n4cccn4)cc3)CCO2)c1 (stereo not drawn) | -0.9
5 | Cn1cc(-c2nc(CN3CCCCC3Cn3cncn3)cs2)cn1 (stereo not drawn) | 19.3
6 | CS(=O)(=O)NCCN1CCCC1c1noc(C2CC2)n1 (stereo not drawn) | 19.5
7 | Cc1n[nH]c(C2CN(Cc3nnc(C4CCC4)o3)CCO2)n1 (stereo not drawn) | -1.02
8 | CCc1nnc(CN2CCOC(Cn3cccn3)C2)o1 (stereo not drawn) | -8.14
9 | c1ccc(Cc2nc(CN3CCCC3Cn3cncn3)cs2)cc1 (stereo not drawn) | -7.1
10 | Cc1cnn(CC2CCCCN2Cc2nnsc2Cl)c1 (stereo not drawn) | -7.35
11 | CS(=O)(=O)c1ccc(CNC(=O)N2CCC(C(N)=O)CC2)cc1 | -2.35
12 | CCOc1ncccc1NC(=O)NCC(O)c1ccc(OC)cc1 (stereo not drawn) | 19.2
13 | CC(NC(=O)NCCCc1n[nH]c(N)c1C#N)c1ccc(Cl)cc1 (stereo not drawn) | -0.0754
14 | COc1cc(C(=O)Nc2nc(C)no2)ccc1OC(F)F | 2.82
15 | CCOCc1ccc(CNC(=O)N2CCC(C(N)=O)C2)cc1 (stereo not drawn) | -2.39
16 | c1ccc(-c2nnc(CN3CCOC(Cn4cccn4)C3)o2)cc1 (stereo not drawn) | -6.72
17 | Cc1nn(C)c(N2CCOCC2)c1CN[C@@H]1c2ccccc2C[C@@H]1O | -0.734
18 | CS(=O)(=O)Cc1ccc(CNC(=O)N2CCC(C(N)=O)C2)cc1 (stereo not drawn) | -1.33
19 | Cc1ccc(-c2nnc(CN3CCOC(Cn4cncn4)C3)o2)cc1 (stereo not drawn) | -5.3
20 | COc1ccc(C)cc1C(=O)N1CCCC(n2nc(C)nc2C)C1 (stereo not drawn) | -8.26
21 | CS(=O)(=O)c1ccc(CNC(=O)N2CCC(CO)CC2)cc1 | -2.86
22 | Clc1ccc(-c2nnc(CNCCn3cccn3)o2)c(Cl)c1 | -6.39
23 | Cc1nc(C)n(CC2CCCN2CCOc2ccccc2F)n1 (stereo not drawn) | -3.47
24 | CCc1nc(CN(C(C)=O)C2CCN(CCc3ccccc3)C2)no1 (stereo not drawn) | -5

Row | Structure (SMILES) | cytotoxicity at 70.5 h [%]
25 | Cc1nc(CN2CCCC(NCCCc3ccccc3)C2)no1 (stereo not drawn) | -10.6
26 | O=C(CCCN1C(=O)CCC1=O)NCC1(c2ccccc2)CCC1 | -11.4
27 | Cc1cccc(-n2c(C)cc(C(=O)NS(C)(=O)=O)c2C)c1 | -14.6
28 | CC(NC(=O)NCCn1ccnc1)c1ccc2c(c1)OCCCO2 (stereo not drawn) | -13.2
29 | CC(NC(=O)NCCCO)c1ccc2c(c1)NC(=O)CO2 (stereo not drawn) | -12
30 | CNC(=O)c1cc(C)n(-c2cccc(OC)c2)c1C | 11
31 | CN(CC(N)=O)CC(=O)N1CC=C(c2ccccc2)CC1 | -10.6
32 | c1ccc2nc(N3CCOC(Cn4cccn4)C3)cnc2c1 (stereo not drawn) | -11.7
33 | CCOc1ccccc1CNC1CCCN(Cc2noc(C)n2)C1 (stereo not drawn) | -9.86
34 | Cc1cc(C)n(C2CCCN(C(=O)Cc3ccc(C#N)cc3)C2)n1 (stereo not drawn) | -14.4
35 | CNC(=O)CCNC(=O)c1cc(C)n(-c2cccc(OC)c2)c1C | -8.45
36 | c1ccc2nc(N3CCOC(Cn4cncn4)C3)cnc2c1 (stereo not drawn) | -5.96
37 | Cc1n[nH]c(C2CN(C(=O)c3cc4c(s3)CCC4)CCO2)n1 (stereo not drawn) | -14.5
38 | Cc1cccc(C2(CNC(=O)CO)CCCC2)c1 | 17.1
39 | O=C1C(NS(=O)(=O)c2cccc(F)c2)CCN1Cc1ccccc1 (stereo not drawn) | -12
40 | O=C1C(NS(=O)(=O)c2ccc(F)c(F)c2)CCN1Cc1ccccc1 (stereo not drawn) | -7.62
41 | CCc1n[nH]c(C2CN(C(=O)c3cc(C(N)=O)cs3)CCO2)n1 (stereo not drawn) | -12.1
42 | Cc1ccc(CC(=O)N2CCCC(n3nc(C)cc3C)C2)cn1 (stereo not drawn) | -9.71
43 | CCc1nc(CN(C(C)=O)C2CCN(CCc3ccncc3)C2)no1 (stereo not drawn) | 11.6
44 | COc1ccc(CC(=O)N2CCCC(n3nc(C)cc3C)C2)cc1 (stereo not drawn) | -3.95
45 | Clc1ccccc1-c1nnc(CNCCn2cccn2)o1 | -8.51
46 | Cc1n[nH]c(C2CN(C(=O)c3cc4c(s3)CCCC4)CCO2)n1 (stereo not drawn) | -4.81
47 | CCCc1n[nH]c(C2CN(C(=O)c3cc4c(s3)CCC4)CCO2)n1 (stereo not drawn) | -7.08
48 | COc1ccc(CC(=O)N2CCCC(n3nc(C)cc3C)C2)cc1F (stereo not drawn) | -9.02

Row | Structure (SMILES) | cytotoxicity at 70.5 h [%]
49 | CN1CCOC(CNCc2coc(-c3ccc(Cl)cc3)n2)C1 (stereo not drawn) | -2.49
50 | CN1CCOC(CNCc2coc(-c3cccc(F)c3)n2)C1 (stereo not drawn) | 36.2
51 | Cc1nc(CSCCC(=O)NCc2ccncc2)cs1 | -6.44
52 | CCN(CC1CCCO1)C(=O)Nc1cccc(Cl)c1OC (stereo not drawn) | 24.1
53 | Cc1cccc(NC2CCN(C(=O)Nc3cc(F)ccc3F)CC2)n1 | 0.351
54 | Cc1cccc(NC2CCN(C(=O)Nc3ccc(F)cc3C)CC2)n1 | -5.61
55 | COc1cccc(CNCC2CN(C)CCO2)c1 (stereo not drawn) | -7.17
56 | COc1ccc(CNC(=O)CCSCc2csc(C)n2)cn1 | -4.07
57 | COCCOc1ccc(NC(=O)C2CC(=O)N(C(C)C)C2)cn1 (stereo not drawn) | -4.64
58 | COCCOc1ccc(NC(=O)C2CC(=O)N(CC3CC3)C2)cn1 (stereo not drawn) | 19.3
59 | CCN(CC)C(CNC(=O)c1c(C)noc1C(C)C)c1ccsc1 (stereo not drawn) | 0.627
60 | COCCOc1ccc(NC(=O)C2CC(=O)N(C3CC3)C2)cn1 (stereo not drawn) | -4.78
61 | Cc1cc(NC(=O)NCC(C)N2CCOCC2)n(C)n1 (stereo not drawn) | -6.14
62 | CCOc1ccc(C#N)cc1NCC(=O)OC | -2.6
63 | CCOc1ccc(C#N)cc1NCC(=O)NC(=O)Nc1ccccc1 | -8.89
64 | OC(CN1CCC(c2ccn[nH]2)CC1)c1ccc(F)cc1 (stereo not drawn) | 26.4
65 | CC(C)c1nc(C2CCCN2C(=O)c2nccnc2N)no1 (stereo not drawn) | -7.76
66 | CN(C)C(CNC(=O)c1cc2c([nH]c1=O)CCCC2=O)c1ccsc1 (stereo not drawn) | -2.41
67 | CCOc1ncccc1NC(=O)N1CCCCCC1 | -13.8
68 | CC(c1nc(C2CC2)no1)N1CCN(CCOCC(F)(F)F)CC1 (stereo not drawn) | -8.3
69 | Cc1csc(N2CCN(CC(=O)Nc3nncs3)CC2C)n1 (stereo not drawn) | -10
70 | O=C(c1cnccn1)N1CCN(Cc2csc(-c3ccccc3)n2)CC1 | 10.5
71 | CN(CCn1cccn1)S(=O)(=O)N1CCCC1c1ccco1 (stereo not drawn) | -17
72 | CCOc1ncccc1NC(=O)N1CCc2ccccc2C1 | -12

Row | Structure (SMILES) | cytotoxicity at 70.5 h [%]
73 | Cc1noc(C)c1C(=O)NCC(C)N(C)C (stereo not drawn) | 4.18
74 | CC(=O)N1CCC(CN2CCN(Cc3nccn3C)C(C)C2)CC1 (stereo not drawn) | 2.21
75 | COc1ccc(C)cc1CN1CCCC1c1noc(C2CC2)n1 (stereo not drawn) | -1.93
76 | O=C(CCn1cccn1)N1CCN(CC(F)F)CC1 | -1.77
77 | CC(=O)N(Cc1ncc(C(C)C)o1)C1CCN(Cc2ncc[nH]2)C1 (stereo not drawn) | 0.135
78 | CCC(=O)N1CCN(C(=O)CCn2cccn2)CC1 | -7.9
79 | c1ccc2sc(CN3CCCC3c3noc(C4CC4)n3)nc2c1 (stereo not drawn) | 4.52
80 | c1ccc2c(N3CCCC3Cn3cccn3)ncnc2c1 (stereo not drawn) | 4.1
81 | Cc1ccsc1C(=O)NCCCn1nc2ccccn2c1=O | -4.38
82 | CNC(=O)C1CCN(C(=O)c2ccn(-c3ccc(F)cc3)n2)CC1 | -15
83 | CC(=O)NCCNC(=O)c1sc(-c2ccc(C)cc2C)nc1C | 0.801
84 | Cc1nc(-c2ccc(Cl)s2)sc1C(=O)NCCS(N)(=O)=O | -13.2
85 | CN(C)Cc1nc(C(C)(C)NC(=O)C2CC(=O)N(CC3CC3)C2)no1 (stereo not drawn) | 19.5
86 | CCCc1nc(C(C)(C)NC(=O)C2CC(=O)N(CC3CC3)C2)no1 (stereo not drawn) | -6.06
87 | CN1CCCN(C(=O)NCc2csc(Br)c2)CC1 | -6.63
88 | CN(C)C1CCN(C(=O)c2ccc(Cn3ccccc3=O)o2)CC1 | 1.64
89 | COc1c(CNC2CCCc3ccccc32)c(C(C)C)nn1C (stereo not drawn) | 9.34
90 | Cc1ncc2c(n1)CN(Cc1nnc(-c3occc3C)o1)CC2 | 4.24
91 | Cc1ccc(-c2nnc(CN3CCc4cnc(C)nc4C3)o2)cc1 | 3.5
92 | CC1CN(CC(=O)Nc2nncs2)CCN1Cc1nccn1C (stereo not drawn) | -4.59
93 | CCOc1cc(C)nc(N2CCN(C(=O)c3ccnn3C)CC2)n1 | -3.99
94 | c1cnn(CC2CCCN2c2ncnc3sccc23)c1 (stereo not drawn) | 31.2
95 | c1ccc(-c2noc(CNC3CCc4ncnn4C3)n2)nc1 (stereo not drawn) | -4.56
96 | CCOC(=O)c1sc2ccsc2c1CNC(=O)C(C)(C)C#N | -2.32

Row | Structure (SMILES) | cytotoxicity at 70.5 h [%]
97 | Cc1nc(C)n(C2CCCN(C(=O)c3ccc(NC4CC4)nc3)C2)n1 (stereo not drawn) | -6.49
98 | Nc1nc(CN2CCCC(Cn3cncn3)C2)nc2ccccc12 (stereo not drawn) | 1.03
99 | Cc1nnc(NCc2cccnc2N(C)C)c(C#N)c1C | 2.49
100 | Cc1cnc(CN(C)C2CCN(CCc3ccccn3)CC2)cn1 | 14.7
101 | CN(Cc1ncc[nH]1)CC(c1cccs1)N1CCOCC1 (stereo not drawn) | 17.4
102 | Cc1nc(C)c(C(=O)NCCNC(=O)Cc2ccccc2)s1 | -1.65
103 | Cc1nc(C)c(C(=O)NCCNC(=O)Cc2cccc(F)c2)s1 | -9.52
104 | CC(NC(=O)NCCCOC1CCCCC1)c1nncn1C (stereo not drawn) | -6.4
105 | Cc1csc(N2CCCN(C(=O)C(C(C)C)n3cncn3)CC2)n1 (stereo not drawn) | 2.24
106 | COCCN1CCN(CCCS(C)(=O)=O)CC1C (stereo not drawn) | 42.9
107 | NC(=O)c1csc(C(=O)N2CCCCC2Cn2cccn2)c1 (stereo not drawn) | -10.3
108 | CC(C)n1ncc2cc(NC(=O)N3CCC(N4CCCC4)C3)cnc21 (stereo not drawn) | 1.93
109 | Cc1ccc(C(=O)NS(=O)(=O)c2cccc3cnccc23)c(=O)[nH]1 | -6.04
110 | CC(C)(C#N)C(=O)N1CCCC(c2cc(C(F)(F)F)[nH]n2)C1 (stereo not drawn) | -0.389
111 | CCc1ccccc1-n1cc(O)c(C(=O)N2CCCCC2)n1 | -4.48
112 | O=C(c1nn(-c2ccccc2F)cc1O)N1CCCC1 | -2.52
113 | CCOCCN1CCN(Cc2cccc(C(=O)N(C)C)c2)CC1 | 40.4
114 | COCCN1CCN(CCS(=O)(=O)C(F)(F)F)CC1C (stereo not drawn) | -6.2
115 | CC(O)CN1CCN(Cc2cccc(C(=O)N(C)C)c2)CC1 (stereo not drawn) | -2.45
116 | COc1c(C2CCCN2CC(=O)Nc2nc(C)cs2)c(C)nn1C (stereo not drawn) | 3.79
117 | CC(C)c1nn(C)c(Cl)c1CNC1CCOc2ccccc21 (stereo not drawn) | -2.92
118 | CCOC(=O)c1sc2ccsc2c1CN | -3.38
